The term MIC denotes the least concentration at which growth counts as inhibited.

Data on four molecules can be found in patent publication US5112967A, “Process for synthesizing antibacterial cephalosporin compounds” (Hoffmann-La Roches Inc., priority 1990, dated 1992).

Holding throughout (assay type): cell-based
One experiment deals with P. aeruginosa 1973E. The experiment is described as follows: Broth Dilution Method MIC. Conditions: Pseudomonas aeruginosa, In Vitro. An excerpt:
(§1) Compounds of the formula I and Ia, including their active geometric and/or optical isomers, their salts and esters and hydrates of those compounds can be used as agents to combat bacterial infections (including urinary tract infections and respiratory infections) in mammalian species, e.g., dogs, cats, horses, etc., and humans. […]. The […] activity of selected compounds of formulas I and Ia as measured by the Minimum Inhibitory Concentration in micrograms/ml utilizing the Agar Well Diffusion Method, Agar Dilution Method or Broth Dilution Method against a variety of Gram-positive and Gram-negative organisms, is as follows:
(§2) In Vitro MIC (ug/ml) Broth Dilution Method

A further experiment has as its system P. aeruginosa 6148B. Kind of experiment: Broth Dilution Method MIC. Conditions: Pseudomonas aeruginosa, In Vitro.
Source text: as §1, §2
(In broth dilution the organism is exposed to a series of concentrations in liquid medium.)

The next experiment has as its system P. aeruginosa K77/WT. Kind of experiment: Broth Dilution Method MIC. The note with it: Pseudomonas aeruginosa, In Vitro.
Source text: as §1, §2

For another experiment, the system named is P. aeruginosa 5700. Kind of experiment: Broth Dilution Method MIC. Conditions: Pseudomonas aeruginosa, In Vitro.
Source text: as §1, §2

The next experiment concerns P. aeruginosa 503-56. Kind of experiment: Broth Dilution Method MIC. The note with it: Pseudomonas aeruginosa, 50356, In Vitro.
Source text: as §1, §2

Another experiment relates to P. aeruginosa 765. The experiment is described as follows: Broth Dilution Method MIC. The note with it: Pseudomonas aeruginosa, In Vitro.
Source text: as §1, §2

The next experiment deals with P. aeruginosa B. Kind of experiment: Broth Dilution Method MIC. Conditions: Pseudomonas aeruginosa.
Source text: as §1, §2

The next experiment deals with P. aeruginosa 8780. Kind of experiment: Broth Dilution Method MIC. The note with it: Pseudomonas aeruginosa, In Vitro.
Source text: as §1, §2

In the next experiment the test system is P. aeruginosa 8710. The experiment is described as follows: Broth Dilution Method MIC. Conditions: Pseudomonas aeruginosa.
Source text: as §1, §2

In experiment [1] the test system is P. aeruginosa Stone 130. Kind of experiment: Broth Dilution Method MIC. Conditions: Pseudomonas aeruginosa, STONE130, In Vitro.
Source text: as §1, §2

The next experiment has as its system P. aeruginosa ATCC 27853. The experiment is described as follows: Broth Dilution Method MIC. Conditions: Pseudomonas aeruginosa, ATCC27853, In Vitro.
Source text: as §1, §2

In experiment [2] the test system is P. aeruginosa 185/H. Kind of experiment: Broth Dilution Method MIC. The note with it: Pseudomonas aeruginosa, In Vitro.
Source text: as §1, §2

The subject of the next experiment is P. aeruginosa K77/61. The experiment is described as follows: Broth Dilution Method MIC. The note with it: Pseudomonas aeruginosa.
Source text: as §1, §2

A further experiment has as its system P. mirabilis 190. Kind of experiment: Agar Dilution Method MIC. Conditions: Proteus mirabilis, In Vitro.
Source text: as §1
(§3) In Vitro MIC (ug/ml) Agar Dilution Method
Background: Agar dilution tests growth on a series of plates holding different concentrations.

For another experiment, the system named is S. aureus Smith. Kind of experiment: Agar Dilution Method MIC. Conditions: Staphylococcus aureus, In Vitro.
Source text: as §1, §3

The test system of the next experiment is S. aureus ATCC 25923. The experiment is described as follows: Agar Dilution Method MIC. Conditions: Staphylococcus aureus, ATCC25923, In Vitro.
Source text: as §1, §3

The subject of another experiment is E. cloacae P99. Kind of experiment: Agar Dilution Method MIC. The note with it: Enterobacter cloacae.
Source text: as §1, §3

The test system of another experiment is S. marscescens SM. The experiment is described as follows: Agar Dilution Method MIC. Conditions: In Vitro.
Source text: as §1, §3

For experiment [3], the system named is P. aeruginosa Stone 130. The experiment is described as follows: Agar Dilution Method MIC. The note with it: Pseudomonas aeruginosa, STONE130, In Vitro.
Source text: as §1, §3

The next experiment concerns P. aeruginosa 130. Kind of experiment: Agar Dilution Method MIC. Conditions: Pseudomonas aeruginosa, In Vitro.
Source text: as §1, §3

The subject of the next experiment is E. cloacae 9570A. Kind of experiment: Agar Dilution Method MIC. The note with it: Enterobacter cloacae, In Vitro.
Source text: as §1, §3

The test system of another experiment is S. aureus 95. Kind of experiment: Agar Dilution Method MIC. The note with it: Staphylococcus aureus, In Vitro.
Source text: as §1, §3

In a further experiment the test system is S. aureus 1059B. The experiment is described as follows: Agar Dilution Method MIC. The note with it: Staphylococcus aureus, In Vitro.
Source text: as §1, §3

Experiment [4] concerns P. aeruginosa 185/H. Kind of experiment: Agar Dilution Method MIC. Conditions: Pseudomonas aeruginosa, In Vitro.
Source text: as §1, §3

The subject of a further experiment is P. vulgaris ATCC 6380. The experiment is described as follows: Agar Dilution Method MIC. The note with it: Proteus vulgaris, ATCC6380, In Vitro.
Source text: as §1, §3

The next experiment deals with S. aureus Giorgid. The experiment is described as follows: Agar Dilution Method MIC. Conditions: Staphylococcus aureus, In Vitro.
Source text: as §1, §3

[5] abbreviates: In Vitro, Broth Dilution, P. aeruginosa B, read-out: MIC.

Counter-ions that a name gives are not always drawn. Like-named read-outs stand apart in the source and are kept apart here.

`CON=C(C(=O)NC1C(=O)N2C(C(=O)O)=C(COC(=O)c3ccc(O)c(O)c3)CSC12)c1csc(N)n1` (stereo not drawn) [Compound A, [6R-[6 alpha,7 beta(Z)]]-7-[[2-amino-4-thiazolyl)(methoxyimino)acetyl]amino]-3-[[[(3,4-dihydroxyphenyl)carbonyl]oxy]methyl]-8-oxo-5-thia-1-azabicyclo[4.2.0]oct-2-ene-2-carboxylic acid monosodium salt]: the MIC in the experiment with P. aeruginosa 1973E worked out at 4 µg/mL; against P. aeruginosa 6148B, 2 µg/mL; in the experiment with P. aeruginosa K77/WT it was 1 µg/mL; against P. aeruginosa 5700, 8 µg/mL; against P. aeruginosa 503-56, 4 µg/mL; against P. aeruginosa 765 it was 4 µg/mL. For the same molecule, the MIC came to 2 µg/mL in the experiment with P. aeruginosa B (setting [5]); 0.5 µg/mL against P. aeruginosa 8780; 2 µg/mL in the experiment with P. aeruginosa 8710 (In Vitro, Broth Dilution, P. aeruginosa 8710, read-out: MIC); 2 µg/mL against P. aeruginosa Stone 130 [1]; 8 µg/mL with P. aeruginosa ATCC 27853; 0.016 µg/mL against P. aeruginosa 185/H [2]. The molecule further displayed an MIC against P. aeruginosa K77/61 of 0.25 µg/mL.
For the molecule `CC(=O)Oc1ccc(C(=O)OCC2=C(C(=O)O)N3C(=O)C(NC(=O)C(=NOCC(N)=O)c4csc(N)n4)C3SC2)cc1OC(C)=O` (stereo not drawn) [Compound B, [6R-[alpha,7 beta(Z)]]-3-[[[3,4-bis(acetyloxy)benzoyl]oxy]methyl]-7-[[[2-amino-4-thiazolyl][(2-amino-2-oxoethoxy)imino]acetyl]amino]-8-oxo-5-thia-1-azabicyclo[4.2.0]oct-2-ene-2-carboxylic acid monosodium salt], the MIC was determined as 0.063 µg/mL against P. mirabilis 190; 4 µg/mL in the experiment with S. aureus Smith; 2 µg/mL with S. aureus ATCC 25923; 32 µg/mL against E. cloacae P99; 1 µg/mL in the experiment on S. marscescens SM; 4 µg/mL in the experiment with P. aeruginosa Stone 130 [3]. For the same molecule, the MIC in the experiment with P. aeruginosa 130 is 4 µg/mL; in the experiment with E. cloacae 9570A, 1 µg/mL; in the experiment on S. aureus 95, 64 µg/mL; with S. aureus 1059B, 4 µg/mL; against P. aeruginosa 185/H [4], 2 µg/mL; against P. vulgaris ATCC 6380, 0.016 µg/mL. In the experiment with S. aureus Giorgid, the MIC is 8 µg/mL.
`CC(C)(ON=C(C(=O)NC1C(=O)N2C(C(=O)O)=C(COC(=O)c3ccc(O)c(O)c3)CSC12)c1csc(N)n1)C(=O)O` (stereo not drawn) [Compound C, [6R-[6 alpha,7 beta(Z)]]-7-[[(2-amino-4-thiazolyl)(1-carboxy-1-methylethoxy)imino]acetyl]amino]-3-[[3,4-dihydroxybenzoyl)oxy]methyl]-8-oxo-5-thia-1-azabicyclo[4.2.0]oct-2-ene-2-carboxylicacid disodium salt]: the MIC in the experiment with P. aeruginosa 1973E came out at 2 µg/mL; with P. aeruginosa 6148B, 0.031 µg/mL; against P. aeruginosa K77/WT, 0.63 µg/mL; in the experiment with P. aeruginosa 5700 it was 2 µg/mL; with P. aeruginosa 503-56, 0.25 µg/mL; in the experiment on P. aeruginosa 765, 8 µg/mL. Besides, the minimum inhibitory concentration (MIC) was 0.125 µg/mL in the experiment with P. aeruginosa B; above 0.008 µg/mL in the experiment on P. aeruginosa 8780; 0.063 µg/mL in the experiment on P. aeruginosa 8710 (8710); 0.125 µg/mL in the experiment with P. aeruginosa Stone 130 [1]; 32 µg/mL in the experiment on P. aeruginosa ATCC 27853; 0.031 µg/mL against P. aeruginosa 185/H [2]. In the experiment with P. aeruginosa K77/61, this molecule registered an MIC above 0.008 µg/mL.
On to `CCN1CCN(C(=O)N[C@@H](C(=O)N[C@@H]2C(=O)N3C(C(=O)O)=C(COC(=O)c4ccc(O)c(O)c4)CS[C@H]23)c2ccccc2)C(=O)C1=O` [Compound D, [6R-[6 alpha,7 beta(R*)]]-7-[[[[(4-ethyl-2,4-dioxo-1-piperazinyl)carbonyl]amino]phenyl-acetyl]amino-3-[[(3,4-dihydroxy)benzoyl]oxy]-methyl]-8-oxo-5-thia-1-azabicyclo[4.2.0.]-oct-2-ene-2-carboxylic acid monosodium salt], for which the MIC in the experiment on P. aeruginosa 1973E amounted to 4 µg/mL; against P. aeruginosa 6148B, 0.125 µg/mL; against P. aeruginosa K77/WT, 0.25 µg/mL; against P. aeruginosa 5700, 4 µg/mL; against P. aeruginosa 503-56 it was 4 µg/mL; with P. aeruginosa 765, 128 µg/mL. In addition, the MIC in the experiment on P. aeruginosa B (setting [5]) stood at 0.25 µg/mL; with P. aeruginosa 8780, 0.016 µg/mL; in the experiment with P. aeruginosa 8710 (8710) it was 0.125 µg/mL; with P. aeruginosa Stone 130 [1] it was 0.5 µg/mL; against P. aeruginosa ATCC 27853, 0.5 µg/mL; with P. aeruginosa 185/H [2], 0.125 µg/mL. This molecule came in with an MIC in the experiment with P. aeruginosa K77/61 of 0.016 µg/mL.
